Test results from patent publication US4920103A, “Modifications of mycinose and 3-O-demethylmycinose in tylosin-type macrolides” (Eli Lilly and Company, priority 1986, dated 1990).
In brackets after ≈: the same amount, converted by molar mass. Several values for one entry are separate records, joined by “and”; a condition that tells them apart may be missing. Identical values can stand only once. Like-named read-outs stand apart in the source and are kept apart here.

Columns and labels:
Mycoplasma hyorhinis 29E = assay: MIC, broth-dilution microtiter test, M. hyorhinis 29E; assay type: cell-based
Description: (§1) The MIC's in Table II were determined by standard agar-dilution assays. The MIC's in Table III were obtained using conventional broth-dilution microtiter tests.

[1] = tested on: Streptococcus Group D 2041; assay: MIC, standard agar-dilution assay, Streptococcus Group D 2041; assay type: cell-based
Description: as §1

[2] = tested on: Streptococcus pneumoniae Park I; assay: MIC, standard agar-dilution assay, S. pneumoniae Park I; assay type: cell-based
Description: as §1

[3] = tested on: Streptococcus Group D X66; assay: MIC, standard agar-dilution assay, Streptococcus Group D X66; assay type: cell-based
Description: as §1

[4] = tested on: Pasteurella multocida 17E; assay: MIC, broth-dilution microtiter test, P. multocida 17E; assay type: cell-based
Description: as §1

Mycoplasma synoviae 40A = assay: MIC, broth-dilution microtiter test, M. synoviae 40A; assay type: cell-based
Description: as §1

[5] = tested on: Streptococcus pyogenes C203; assay: Protection of mice experimentally infected with Streptococcus pyogenes C203; assay type: in vivo; settings: doses given 1 and 4 hours postinfection
Description: The formula 1 compounds have shown in vivo antimicrobial activity against experimentally-induced infections in laboratory animals. When two doses of test compound were administered to mice experimentally infected with Streptococcus pyogenes C203, the activity observed was measured as an ED50 value [effective dose in mg/kg to protect 50% of the test animals: see Warren Wick, et al., J. Bacteriol. 81, 233-235 (1961)].
^a mg/kg × 2; doses given 1 and 4 hours postinfection

[6] = tested on: Streptococcus pyogenes C203; assay: MIC, standard agar-dilution assay, S. pyogenes C203; assay type: cell-based
Description: as §1

[7] = tested on: Staphylococcus aureus V41; assay: MIC, standard agar-dilution assay, S. aureus V41; assay type: cell-based
Description: as §1

[8] = tested on: Mycoplasma hyopneumoniae S5972; assay: MIC, broth-dilution microtiter test, M. hyopneumoniae S5972; assay type: cell-based
Description: as §1

Streptococcus sp. 19F = assay: MIC, broth-dilution microtiter test, Streptococcus sp. 19F; assay type: cell-based
Description: as §1

Staphylococcus aureus = assay: MIC, broth-dilution microtiter test, S. aureus; assay type: cell-based
Description: as §1

[9] = tested on: Pasteurella hemolytica 23C; assay: MIC, broth-dilution microtiter test, P. hemolytica 23C; assay type: cell-based
Description: as §1

[10] = tested on: Pasteurella multocida 40G; assay: MIC, broth-dilution microtiter test, P. multocida 40G; assay type: cell-based
Description: as §1

[11] = tested on: Pasteurella hemolytica 41D; assay: MIC, broth-dilution microtiter test, P. hemolytica 41D; assay type: cell-based
Description: as §1

[12] = tested on: Staphylococcus epidermidis EPI1; assay: MIC, standard agar-dilution assay, S. epidermidis EPI1; assay type: cell-based
Description: as §1

[13] = tested on: Pasteurella multocida 60A; assay: MIC, broth-dilution microtiter test, P. multocida 60A; assay type: cell-based
Description: as §1

[14] = tested on: Pasteurella multocida 68C; assay: MIC, broth-dilution microtiter test, P. multocida 68C; assay type: cell-based
Description: as §1

[15] = tested on: Pseudomonas aeruginosa X239; assay: MIC, standard agar-dilution assay, P. aeruginosa X239; assay type: cell-based
Description: as §1

[16] = tested on: Mycoplasma gallisepticum 36H; assay: MIC, broth-dilution microtiter test, M. gallisepticum 36H; assay type: cell-based; settings: Mycoplasmoides gallisepticum
Description: as §1

[17] = tested on: Bordetella bronchiseptica; assay: MIC, broth-dilution microtiter test, B. bronchiseptica; assay type: cell-based
Description: as §1

[18] = tested on: Pasteurella multocida 22A; assay: MIC, broth-dilution microtiter test, P. multocida 22A; assay type: cell-based
Description: as §1

[19] = tested on: Staphylococcus aureus X1.1; assay: MIC, standard agar-dilution assay, S. aureus X1.1; assay type: cell-based
Description: as §1

[20] = tested on: Pasteurella hemolytica 22C; assay: MIC, broth-dilution microtiter test, P. hemolytica 22C; assay type: cell-based
Description: as §1

[21] = tested on: Klebsiella pneumoniae X68; assay: MIC, standard agar-dilution assay, K. pneumoniae X68; assay type: cell-based
Description: as §1

[22] = tested on: Staphylococcus epidermidis 222; assay: MIC, standard agar-dilution assay, S. epidermidis 222; assay type: cell-based; settings: agar-dilution, read-out: MIC
Description: as §1

[23] = tested on: Haemophilus influenzae C.L.; assay: MIC, standard agar-dilution assay, H. influenzae C.L.; assay type: cell-based
Description: as §1

[24] = tested on: Staphylococcus aureus X400; assay: MIC, standard agar-dilution assay, S. aureus X400; assay type: cell-based
Description: as §1

[25] = tested on: Mycoplasma gallisepticum 15E; assay: MIC, broth-dilution microtiter test, M. gallisepticum 15E; assay type: cell-based; settings: Mycoplasmoides gallisepticum
Description: as §1

[26] = tested on: Haemophilus influenzae 76; assay: MIC, standard agar-dilution assay, H. influenzae 76; assay type: cell-based
Description: as §1

[27] = tested on: Mycoplasma gallisepticum 29C; assay: MIC, broth-dilution microtiter test, M. gallisepticum 29C; assay type: cell-based; settings: Mycoplasmoides gallisepticum
Description: as §1

[28] = tested on: Staphylococcus aureus S13E; assay: MIC, standard agar-dilution assay, S. aureus S13E; assay type: cell-based
Description: as §1

Escherichia coli EC14 = assay: MIC, standard agar-dilution assay, E. coli EC14; assay type: cell-based
Description: as §1

With `CCC1OC(=O)CC(O)C(C)C(OC2OC(C)C(O)C(N(C)C)C2O)C(CCOc2ccccc2)CC(C)C(=O)C=CC(C)=CC1COC1OC(C)C(OC)C(OC)C1OC` (stereo not shown) [Compound 13, 4"-O-Methyl-20-DH-20-O-phenyl-desmycosin] the MIC (Mycoplasma hyorhinis 29E; broth-dilution microtiter) was 25 µg/mL (≈ 28.9 µM), the MIC ([1]; agar-dilution) was 16 µg/mL (≈ 18.5 µM) and the MIC ([2]; agar-dilution) was 4 µg/mL (≈ 4.63 µM). The MIC ([3]; agar-dilution) was 16 µg/mL (≈ 18.5 µM), the MIC ([4]; broth-dilution microtiter, bovine isolate) was “-- (not active at 50 mcg/mL)” and the MIC (Mycoplasma synoviae 40A; broth-dilution microtiter) was 6.25 µg/mL (≈ 7.23 µM). For the same molecule, the ED50 ([5]; oral) was 18.8 mg/kg × 2 and 22.4 mg/kg × 2, the ED50 ([5]; subcutaneous) was > 10 mg/kg × 2 and the MIC ([6]; agar-dilution) was 4 µg/mL (≈ 4.63 µM). The MIC ([7]; agar-dilution, penicillin-resistant strain) was 2 µg/mL (≈ 2.31 µM), the MIC ([8]; broth-dilution microtiter) was > 25 µg/mL and the MIC (Streptococcus sp. 19F; broth-dilution microtiter) was 6.25 µg/mL (≈ 7.23 µM).

In the case of `CCC1OC(=O)CC(O)C(C)C(OC2OC(C)C(O)C(N(C)C)C2O)C(CCOc2ccccc2)CC(C)C(=O)C=CC(C)=CC1COC1OC(C)CC(OC)C1OC` (stereo not shown) [Compound 11, 4"-Deoxy-20-DH-20-O-phenyl-desmycosin], the MIC (Staphylococcus aureus) is reported as 0.78 µg/mL (≈ 0.935 µM), the MIC [9] is reported as 25 µg/mL (≈ 30 µM) and the MIC [10] is reported as 25 µg/mL (≈ 30 µM). The MIC [11] was 25 µg/mL (≈ 30 µM), the MIC [12] was 0.25 µg/mL (≈ 0.3 µM) and the MIC [13] was 25 µg/mL (≈ 30 µM). It also gave an MIC (Mycoplasma hyorhinis 29E; Mycoplasma, 29E) of 25 µg/mL (≈ 30 µM), an MIC ([1]; GROUPD2041) of 4 µg/mL (≈ 4.8 µM) and an MIC ([2]; Streptococcus pneumoniae) of 0.25 µg/mL (≈ 0.3 µM). The MIC [3] was 2 µg/mL (≈ 2.4 µM), the MIC [14] was 12.5 µg/mL (≈ 15 µM) and the MIC ([4]; Pasteurella multocida, 17E) was 25 µg/mL (≈ 30 µM). The MIC [15] was > 128 µg/mL, the MIC [16] was 25 µg/mL (≈ 30 µM) and the MIC [17] was > 50 µg/mL. For the same molecule, the MIC (Mycoplasma synoviae 40A; Mycoplasmopsis synoviae, 40A) was 1.56 µg/mL (≈ 1.87 µM), the ED50 ([5]; Streptococcus pyogenes, C203, oral, read-out: ED50) was 34 mg/kg and the ED50 ([5]; Streptococcus pyogenes, C203, sc, subcutaneous, read-out: ED50) was 10 mg/kg. It also gave an MIC [18] of 25 µg/mL (≈ 30 µM), an MIC [19] of 0.25 µg/mL (≈ 0.3 µM) and an MIC ([6]; Streptococcus pyogenes, C203) of 0.25 µg/mL (≈ 0.3 µM). The MIC [20] was 25 µg/mL (≈ 30 µM), the MIC [21] was > 128 µg/mL and the MIC ([7]; Staphylococcus aureus, V41) was 0.25 µg/mL (≈ 0.3 µM). For the same molecule, the MIC [22] was 0.125 µg/mL (≈ 0.15 µM), the MIC [23] was 32 µg/mL (≈ 38.4 µM) and the MIC ([8]; Mesomycoplasma hyopneumoniae, S5972) was > 25 µg/mL. The MIC [24] was 0.25 µg/mL (≈ 0.3 µM), the MIC (Streptococcus sp. 19F; Streptococcus, SP.19F) was 12.5 µg/mL (≈ 15 µM) and the MIC [25] was 12.5 µg/mL (≈ 15 µM). The MIC [26] was 32 µg/mL (≈ 38.4 µM), the MIC [27] was 0.39 µg/mL (≈ 0.468 µM) and the MIC [28] was 0.25 µg/mL (≈ 0.3 µM). For the same molecule, the MIC (Escherichia coli EC14) was > 128 µg/mL.
